Measurements reported in patent US20240190855A1 (Relay Therapeutics, Inc., priority 2021, published 2024).

These compounds were tested on CDK2-independent (SKOV3, COV504, COV644) versus CDK2-dependent (COV318, OVCAR3, HCC1569) cell lines (assay: Cell proliferation selectivity assay (CyQUANT Direct Cell Proliferation Assay)). Settings: mean of IC50 ratios between each CDK2-independent versus CDK2-dependent cell line; 120 hours incubation.
Assay type: cell-based
Protocol: Compounds described herein were also tested in cell proliferation selectivity assays. OVCAR3, HCC1569, and SKOV3 cell lines were obtained from ATCC and cultured as recommended by supplier. COV318, COV504, and COV644 cell lines were obtained from Sigma-Aldrich and were cultured as recommended by supplier. The genetic background and dependency of each cell line was determined using publicly available databases: cBioPortal and DepMap. […] All six cell lines are CDK1-dependent given that CDK1 is an essential gene. Proliferation assay was carried out by seeding cells into 384-well plates at predetermined density (ranging from 150 to 1500 cells per well) in corresponding culture media, followed by brief centrifugation at 1000×g, and culturing cells for 24 hours at 37° C., 5% CO2. The following day, compounds were serially diluted (1l-point, 3-fold dilution scheme with 20 μM as top concentration) and dispensed directly onto cells using Echo 555 acoustic liquid handler (Labcyte). The cells were incubated with the compounds at 37° C., 5% CO2 for 120 hours. Relative number of viable cells in each well was determined using CyQUANT Direct Cell Proliferation Assay Kit (Invitrogen) per manufacturers protocol. The plates were read on EnVision 2105 multimode plate reader (Perkin Elmer) using FITC filter set. Dose response curve fitting and IC50 calculation was done using Genedata Screener software. Proliferation selectivity (i.e. selectivity index) for individual compound was derived as a mean of its IC50 ratios between each CDK2-independent versus CDK2-dependent cell line.

Row | Compound | Proliferation selectivity Index
1 | Cn1ncc2cnc(Nc3cc([C@H]4C[C@@H](OC(=O)NC5(C)CC5)CO4)[nH]n3)cc21 [Example I-14] | 23.53
2 | CC(C)NC(=O)O[C@@H]1CO[C@H](c2cc(Nc3nccc4ncsc34)n[nH]2)C1 [Example I-32] | 17.60
3 | COCc1cc2c(Nc3cc([C@H]4CC[C@@H](OC(=O)NC(C)C)C4)[nH]n3)nccn2n1 (single isomer, unassigned) [Example I-10] | 24.36
4 | Cn1nc(COC(F)(F)F)cc1C(=O)Nc1cc([C@@H]2C[C@H](OC(=O)NC3(C)COC3)CO2)[nH]n1 [Example I-25] | 18.78
5 | COCc1cc2c(Nc3cc([C@H]4C[C@@H](OC(=O)NC5(CC(F)(F)F)CC5)CO4)[nH]n3)nccn2n1 [Example I-15] | 23.43
6 | C[C@H](NC(=O)O[C@H]1CO[C@@H](c2cc(Nc3ccc4c(n3)C(C)(C)NC4=O)n[nH]2)C1)C1CC1 [Example I-3] | 45.44
7 | CC(C)NC(=O)O[C@H]1CC[C@@H](c2cc(Nc3ncnc4ncccc34)n[nH]2)C1 (single isomer, unassigned) [Example I-20] | 20.15
8 | C=C(C)c1ccncc1O[C@H]1CC[C@@H](c2cc(NC(=O)Cc3cc(C)no3)n[nH]2)C1 [Example I-6] | 31.48
9 | Cn1nc(OCC(F)F)cc1C(=O)Nc1cc([C@H]2C[C@@H](OC(=O)NC34CC(C3)C4)CO2)[nH]n1 [Example I-30] | 18.27
10 | CC1(NC(=O)O[C@H]2CO[C@@H](c3cc(Nc4ccc5nccn5n4)n[nH]3)C2)CC1 [Example I-8] | 27.56
11 | COCc1cc2c(Nc3cc([C@H]4C[C@@H](OC(=O)N[C@H](C)C(F)(F)F)CO4)[nH]n3)nccn2n1 [Example I-23] | 19.67
12 | CC(C)NC(=O)O[C@@H]1CC[C@H](c2cc(Nc3nccc4nccn34)n[nH]2)C1 (single isomer, unassigned) [Example I-11] | 24.26
13 | C#CC1(NC(=O)O[C@H]2CO[C@@H](c3cc(Nc4nccn5nc(COC)cc45)n[nH]3)C2)CC1 [Example I-36] | 16.79
14 | COCc1cc2c(Nc3cc([C@H]4C[C@@H](OC(=O)N[C@]5(C)CC5(F)F)CO4)[nH]n3)nccn2n1 (single isomer, unassigned) [Example I-34] | 17.33
15 | COCc1cc2c(Nc3cc([C@H]4C[C@@H](OC(=O)N[C@@H](C)C(F)(F)F)CO4)[nH]n3)nccn2n1 [Example I-9] | 24.63
16 | COCc1cc2c(Nc3cc([C@@H]4C[C@H](Oc5nncn5C(C)(C)C)CO4)[nH]n3)nccn2n1 [Example I-26] | 18.65
17 | CC(C)NC(=O)O[C@H]1CC[C@@H](c2cc(Nc3nccc4ncsc34)n[nH]2)C1 (single isomer, unassigned) [Example I-28] | 18.45
18 | CC(C)NC(=O)O[C@@H]1CC[C@H](c2cc(Nc3nccn4nccc34)n[nH]2)C1 (single isomer, unassigned) [Example I-17] | 21.85
19 | CC(C)NC(=O)O[C@H]1CO[C@@H](c2cc(Nc3nccc4ncsc34)n[nH]2)C1 [Example I-41] | 15.98
20 | CC1(NC(=O)O[C@@H]2CO[C@H](c3cc(Nc4nccc5nccn45)n[nH]3)C2)CC1 [Example I-7] | 27.71
21 | CC(C)NC(=O)OC[C@H]1C[C@@H](c2cc(Nc3nccc4ncsc34)n[nH]2)C1 [Example I-22] | 19.69

Row | Compound | Proliferation selectivity Index
22 | COCc1nc2ccnc(Nc3cc([C@H]4C[C@@H](OC(=O)NC(C)C)CO4)[nH]n3)c2s1 [Example I-16] | 22.96
23 | CC(C)NC(=O)O[C@@H]1CC[C@H](c2cc(Nc3ncnc4ncccc34)n[nH]2)C1 (single isomer, unassigned) [Example I-4] | 45.05
24 | CC(C)NC(=O)O[C@@H]1CC[C@H](c2cc(Nc3ncnc4ncsc34)n[nH]2)C1 (single isomer, unassigned) [Example I-24] | 19.46
25 | COCc1cc2c(Nc3cc([C@H]4C[C@@H](OC(=O)N5CCC5(C)C)CO4)[nH]n3)nccn2n1 [Example I-2] | 51.61
26 | COCc1cc2c(Nc3cc([C@@H]4C[C@H](Oc5nncn5C5(C)CC5)CO4)[nH]n3)nccn2n1 [Example I-40] | 16.06
27 | CC1(NC(=O)O[C@H]2CO[C@@H](c3cc(Nc4ccn5nccc5n4)n[nH]3)C2)CC1 [Example I-5] | 32.74
28 | COCc1cc2c(Nc3cc([C@H]4C[C@@H](OC(=O)NC(C)(C)C#N)CO4)[nH]n3)nccn2n1 [Example I-29] | 18.45
29 | CC[C@H](C)NC(=O)O[C@H]1CO[C@@H](c2cc(Nc3ccc4c(n3)C(C)(C)NC4=O)n[nH]2)C1 [Example I-1] | 54.25
30 | COCc1cc2c(Nc3cc([C@H]4C[C@@H](OC(=O)NC(C)C)CO4)[nH]n3)nccn2n1 [Example I-38] | 16.55
31 | CCC1(NC(=O)O[C@H]2CO[C@@H](c3cc(Nc4nccn5nc(COC)cc45)n[nH]3)C2)CC1 [Example I-35] | 17.20
32 | COCc1cc2c(Nc3cc([C@H]4C[C@@H](OC(=O)NC(C)(C)C(F)(F)F)CO4)[nH]n3)nccn2n1 [Example I-42] | 15.77
33 | Cn1nc(COC(F)(F)F)cc1C(=O)Nc1cc([C@@H]2C[C@H](OC(=O)NC3(C)CC3)CO2)[nH]n1 [Example I-18] | 21.63
34 | CC(C)n1cnnc1OC[C@H]1C[C@@H](c2cc(Nc3nccn4nccc34)n[nH]2)C1 [Example I-39] | 16.17
35 | CC(C)NC(=O)OC[C@H]1C[C@@H](c2cc(NC(=O)c3cc(COC(F)(F)F)nn3C)n[nH]2)C1 [Example I-27] | 18.56
36 | COCC1(NC(=O)O[C@@H]2CO[C@H](c3cc(NC(=O)c4cc(COC(F)(F)F)nn4C)n[nH]3)C2)CC1 [Example I-12] | 23.98
37 | COCc1nc2ccnc(Nc3cc([C@@H]4CC[C@H](OC(=O)NC(C)C)C4)[nH]n3)c2s1 (single isomer, unassigned) [Example I-19] | 20.52
38 | Cc1cc(CC(=O)Nc2cc([C@@H]3CC[C@H](Oc4nscc4C4CC4)C3)[nH]n2)on1 (single isomer, unassigned) [Example I-21] | 19.98
39 | CC1(NC(=O)O[C@H]2CO[C@@H](c3cc(Nc4nccc5nccn45)n[nH]3)C2)CC1 [Example I-31] | 17.88
40 | C[C@H](NC(=O)O[C@@H]1CO[C@H](c2cc(NC(=O)c3cc(COC(F)(F)F)nn3C)n[nH]2)C1)C1CC1 [Example I-13] | 23.74
41 | COCc1cc2c(Nc3cc([C@H]4C[C@@H](Oc5nncn5C5(C(F)(F)F)CC5)CO4)[nH]n3)nccn2n1 [Example I-37] | 16.55

What follows are compounds tested against T1, CDK2/Cyclin E complex (Homo sapiens, UniProt P24941) (assay: CDK2/Cyclin E fluorescence-based microfluidic mobility shift assay (CDK2 Biochemical Caliper Assay)). Settings: read-out: Biochemical CDK2/CyclinE Caliper IC50.
T1 construct: purchased Eurofins 14-475
Outline: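 Microfluidic mobility-shift readout after EDTA termination measured phosphorylation of fluorescent FL Peptide 18 (1.5 uM final) in a 20 hr room-temperature reaction. Compounds were tested at 11 concentrations (3-fold).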

Row | IC50 [nM] | Compound
42 | ≤ 100 | COCc1cc2c(Nc3cc([C@H]4C[C@@H](OC(=O)N[C@@H](C)CC(F)(F)F)CO4)[nH]n3)nccn2n1 [Example 639]
43 | ≤ 100 | CC(C)c1[nH]ncc1OC[C@H]1C[C@@H](c2cc(Nc3nccn4nccc34)n[nH]2)C1 [Example 582]
44 | 1000 to 100000 | COCc1cc(C(=O)Nc2cc([C@@H]3CC[C@H](c4cnc(C)cn4)C3)[nH]n2)n(C)n1 (single isomer, unassigned) [Example 577]
45 | ≤ 100 | COCc1cc2c(Nc3cc([C@@H]4C[C@H](OC(=O)NC(C)C)CO4)[nH]n3)nccn2n1 [Example 545]
46 | 250 to 1000 | CC1(NC(=O)O[C@H]2CO[C@@H](c3cc(Nc4ccn5c(Cl)nnc5n4)n[nH]3)C2)CC1 [Example 755]
47 | 1000 to 100000 | Cc1cc(CC(=O)Nc2cc([C@H]3CC[C@@H](NC(=O)OC(C)C)C3)[nH]n2)on1 (single isomer, unassigned) [Example 143]
48 | ≤ 100 | COCc1cc2c(Nc3cc([C@@H]4C[C@H](Oc5nncn5C(C)C)CO4)[nH]n3)nccn2n1 [Example 715]
49 | ≤ 100 | Cc1ncccc1O[C@@H]1CC[C@H](c2cc(Nc3ccc4c(c3)C(C)(C)NC4=O)n[nH]2)C1 (single isomer, unassigned) [Example 546]
50 | 1000 to 100000 | COCc1cc(C(=O)Nc2cc([C@@H]3CC[C@@H](c4ccc(C)cn4)C3)[nH]n2)n(C)n1 (single isomer, unassigned) [Example 600]
51 | ≤ 100 | COCc1cc2c(Nc3cc([C@H]4C[C@@H](OC(=O)N[C@H]5C[C@H]5C)CO4)[nH]n3)nccn2n1 [Example 775]
52 | ≤ 100 | COCc1cc2c(Nc3cc([C@H]4C[C@@H](OC(=O)NC5(C6CC6)CC5)CO4)[nH]n3)nccn2n1 [Example 702]
